Reference: patent US20250353863A1, “TRICYCLIC SPIROLACTAM COMPOUNDS WITH ANTIMYCOBACTERIAL ACTIVITY” (priority 2022, published 2025)
Read-outs that look alike come from different tables or passages of the source.

System: Mtb H37Rv-WT
Assay: MIC by resazurin microtiter assay (REMA) against Mtb
Format: cell-based
Settings: Mycobacterium tuberculosis, REMA
[1] = 144 h, 37° C., 6 days, read-out: MIC (μM) H37Rv-WT

CC(C)[C@H]1CO[C@]23CC(=O)N(Cc4ccc(C(F)(F)F)cc4)C[C@H]2CCC(=O)N13 [(3S,7aR,11aR)-3-isopropyl-9-[[4-(trifluoromethyl)phenyl]methyl]-3,6,7,7a,8,11-hexahydro-2H-oxazolo[2,3-j][1,6]naphthyridine-5,10-dione]
MIC [1]: > 10 µM

CC(C)[C@H]1CO[C@]23CCN(Cc4ccc(N5CCC(Oc6ccc(OC(F)(F)F)cc6)CC5)cc4)C[C@H]2CCC(=O)N13 [(3S,7aR,11aR)-3-isopropyl-9-[[4-[4-[4-(trifluoromethoxy)phenoxy]-1-piperidyl]phenyl]methyl]-2,3,6,7,7a,8,10,11-octahydrooxazolo[2,3-j][1,6]naphthyridin-5-one]
MIC [1]: < 1 µM

CC(C)[C@H]1CO[C@]23CCN(Cc4ccc(N5CCC(c6ccc(OC(F)(F)F)cc6)CC5)cc4)C[C@H]2CCC(=O)N13 [(3S,7aR,11aR)-3-isopropyl-9-[[4-[4-[4-(trifluoromethoxy)phenyl]-1-piperidyl]phenyl]methyl]-2,3,6,7,7a,8,10,11-octahydrooxazolo[2,3-j][1,6]naphthyridin-5-one]
MIC [1]: < 1 µM

CC(C)[C@H]1CO[C@]23CCN(Cc4ccc(C(F)(F)F)cc4)C[C@H]2CC(F)(F)C(=O)N13 [(3S,7aR,11aR)-6,6-difluoro-3-isopropyl-9-[[4-(trifluoromethyl)phenyl]methyl]-3,7,7a,8,10,11-hexahydro-2H-oxazolo[2,3-j][1,6]naphthyridin-5-one]
MIC [1]: < 1 µM

CC(C)[C@H]1CO[C@]23CCN(Cc4ccc(C(F)(F)F)cc4)C[C@H]2C[C@@H](F)C(=O)N13 [(3S,7aR,11aR)-6-fluoro-3-isopropyl-9-[[4-(trifluoromethyl)phenyl]methyl]-2,3,6,7,7a,8,10,11-octahydrooxazolo[2,3-j][1,6]naphthyridin-5-one]
MIC [1]: < 1 µM

CC(C)[C@H]1CO[C@]23CCN(C(=O)C(F)(F)c4ccc(C(F)(F)F)cc4)C[C@H]2CCC(=O)N13 [(3S,7aR,11aR)-9-[2,2-difluoro-2-[4-(trifluoromethyl)phenyl]acetyl]-3-isopropyl-2,3,6,7,7a,8,10,11-octahydrooxazolo[2,3-j][1,6]naphthyridin-5-one]
MIC [1]: > 10 µM

CC(C)[C@H]1CO[C@]23CCN(CC(F)(F)c4ccc(C(F)(F)F)cc4)C[C@H]2CCC(=O)N13 [(3S,7aR,11aR)-9-[2,2-difluoro-2-[4-(trifluoromethyl)phenyl]ethyl]-3-isopropyl-2,3,6,7,7a,8,10,11-octahydrooxazolo[2,3-j][1,6]naphthyridin-5-one]
MIC [1]: < 1 µM

CC(C)[C@H]1CO[C@]23CCN(Cc4cc(C5CC5)nc5ccccc45)C[C@H]2CCC(=O)N13 [(3S,7aR,11aR)-9-[(2-cyclopropyl-4-quinolyl)methyl]-3-isopropyl-2,3,6,7,7a,8,10,11-octahydrooxazolo[2,3-j][1,6]naphthyridin-5-one]
MIC [1]: < 1 µM

CC(C)[C@H]1CO[C@]23CCN(Cc4ccc(Cl)c(Cl)c4)C[C@H]2CCC(=O)N13 [(3S,7aR,11aR)-9-[(3,4-dichlorophenyl)methyl]-3-isopropyl-2,3,6,7,7a,8,10,11-octahydrooxazolo[2,3-j][1,6]naphthyridin-5-one]
MIC [1]: < 1 µM

CC(C)[C@H]1CO[C@]23CCN(Cc4ccc(Cl)cc4)C[C@H]2CCC(=O)N13 [(3S,7aR,11aR)-9-[(4-chlorophenyl)methyl]-3-isopropyl-2,3,6,7,7a,8,10,11-octahydrooxazolo[2,3-j][1,6]naphthyridin-5-one]
MIC [1]: < 1 µM

CC(C)[C@H]1CO[C@]23CCN(Cc4ccc(F)cc4)C[C@H]2CCC(=O)N13 [(3S,7aR,11aR)-9-[(4-fluorophenyl)methyl]-3-isopropyl-2,3,6,7,7a,8,10,11-octahydrooxazolo[2,3-j][1,6]naphthyridin-5-one]
MIC [1]: < 1 µM

CC(C)[C@H]1CO[C@]23CCN(Cc4ccc(O)cc4)C[C@H]2CCC(=O)N13 [(3S,7aR,11aR)-9-[(4-hydroxyphenyl)methyl]-3-isopropyl-2,3,6,7,7a,8,10,11-octahydrooxazolo[2,3-j][1,6]naphthyridin-5-one]
MIC [1]: > 10 µM

CC(C)[C@H]1CO[C@]23CCN(Cc4ccc(C(F)(F)F)cc4C(F)(F)F)C[C@H]2CCC(=O)N13 [(3S,7aR,11aR)-9-[[2,4-bis(trifluoromethyl)phenyl]methyl]-3-isopropyl-2,3,6,7,7a,8,10,11-octahydrooxazolo[2,3-j][1,6]naphthyridin-5-one]
MIC [1]: < 1 µM

CC(C)[C@H]1CO[C@]23CCN(Cc4ccc(Cl)c(C(F)(F)F)c4)C[C@H]2CCC(=O)N13 [(3S,7aR,11aR)-9-[[4-chloro-3-(trifluoromethyl)phenyl]methyl]-3-isopropyl-2,3,6,7,7a,8,10,11-octahydrooxazolo[2,3-j][1,6]naphthyridin-5-one]
MIC [1]: < 1 µM

O=C1CC[C@@H]2CN(Cc3ccccc3)CC[C@@]23OC[C@H](C2CC2)N13 [(3S,7aR,11aR)-9-benzyl-3-cyclopropyl-2,3,6,7,7a,8,10,11-octahydrooxazolo[2,3-j][1,6]naphthyridin-5-one]
MIC [1]: > 10 µM

CC(C)[C@H]1CO[C@]23CCN(C4CCCCC4)C[C@H]2CCC(=O)N13 [(3S,7aR,11aR)-9-cyclohexyl-3-isopropyl-2,3,6,7,7a,8,10,11-octahydrooxazolo[2,3-j][1,6]naphthyridin-5-one]
MIC [1]: > 10 µM

CC(C)[C@H]1CO[C@]23CCN(Cc4ccc(C(F)(F)F)cc4)C(=O)[C@H]2CCC(=O)N13 [(3S,7aS,11aR)-3-isopropyl-9-[[4-(trifluoromethyl)phenyl]methyl]-3,6,7,7a,10,11-hexahydro-2H-oxazolo[2,3-j][1,6]naphthyridine-5,8-dione]
MIC [1]: > 10 µM

CC(C)[C@H]1CO[C@]23CCCN(Cc4ccc(C(F)(F)F)cc4)C[C@H]2CCC(=O)N13 [(4S,9R)-4-isopropyl-11-[[4-(trifluoromethyl)phenyl]methyl]-2-oxa-5,11-diazatricyclo[7,5,0.01,5]tetradecan-6-one]
MIC [1]: < 1 µM

CC(C)[C@H]1CO[C@]23CCN(Cc4ccc(C(F)(F)F)cc4C(F)(F)F)C[C@H]2CCC(=O)N13 [Example 10, (3S,7aR,11aR)-9-[[2,4-bis(trifluoromethyl)phenyl]methyl]-3-isopropyl-2,3,6,7,7a,8,10,11-octahydrooxazolo[2,3-j][1,6]naphthyridin-5-one]
MIC (read-out: MIC M. tuberculosis): < 1 µM

CC(C)[C@H]1CO[C@]23CCN(Cc4cc(C5CC5)nc5ccccc45)C[C@H]2CCC(=O)N13 [Example 24, (3S,7aR,11aR)-9-[(2-cyclopropyl-4-quinolyl)methyl]-3-isopropyl-2,3,6,7,7a,8,10,11-octahydrooxazolo[2,3-j][1,6]naphthyridin-5-one]
MIC (read-out: MIC M. tuberculosis): < 1 µM

CC(C)[C@H]1CO[C@]23CCN(Cc4cc(C(F)(F)F)nc5ccccc45)C[C@H]2CCC(=O)N13 [Example 25, (3S,7aR,11aR)-3-isopropyl-9-[[2-(trifluoromethyl)-4-quinolyl]methyl]-2,3,6,7,7a,8,10,11-octahydrooxazolo[2,3-j][1,6]naphthyridin-5-one]
MIC (read-out: MIC M. tuberculosis): < 1 µM

CC(C)[C@H]1CO[C@]23CCN(CCc4ccc(C(F)(F)F)cc4)C[C@H]2CCC(=O)N13 [Example 38, (3S,7aR,11aR)-3-isopropyl-9-[2-[4-(trifluoromethyl)phenyl]ethyl]-2,3,67,7a,8,10,11-octahydrooxazolo[2,3-j][1,6]naphthyridin-5-one]
MIC (read-out: MIC M. tuberculosis): < 1 µM
